Measured values as given in US6362369B1, “Phthalic acid diamide derivatives fluorine-containing aniline compounds as starting material, agricultural and horticultural insecticides, and a method for application of the insecticides” (Nihon Nohyaku Co., Ltd., priority 1997, dated 2002).

Tests used:
Format in all cases: in vivo
[1] = system: rice leafroller (Cnaphalocrocis medinalis); assay: Insecticidal effect on rice leafroller (Test Example 3); settings: 500 ppm, 25° C., humidity 70%; for Insecticidal effect on rice leafroller (Test Example 3), judged grade / Insecticidal effect (Test Example 3), judged from mortality: rice lamina dip; for Insecticidal effect on rice leafroller (Test Example 3), judged grade: third-instar larvae; for Insecticidal effect on rice leafroller (Test Example 3), judged grade / Insecticidal effect, Test Example 3: four days after inoculation; for Insecticidal effect, Test Example 3: rice lamina immersed; for Insecticidal effect (Test Example 3), judged from mortality: 4 days after inoculation
In short: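 Insecticidal effect is judged by a predefined criterion from dead/alive counts four days after infesting air-dried lamina with third-instar larvae, kept on moistened filter paper at 25° C, 70% humidity.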

[2] = system: diamondback moth (Plutella xylostella); assay: Insecticidal effect on diamondback moth (Test Example 1); settings: for Insecticidal effect on diamondback moth (Test Example 1), judged grade: mortality judged according to the criterion shown in Test Example 1; for Insecticidal effect, Test Example 1 / Insecticidal effect (Test Example 1), judged from mortality: diamondback moth; for Insecticidal effect (Test Example 1), judged from mortality: judged by the criterion of Test Example 1
In short: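 Oviposition by adults on Chinese cabbage seedling; immersion; air-dry; 25° C room. Count of hatched larvae at day 6 post-immersion → mortality → effect graded by criterion. Triplicate, 10 insects/group.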

[3] = system: common cutworm (Spodoptera Litura); assay: Insecticidal effect on common cutworm (Test Example 2); settings: 500 ppm, 25° C.; for Insecticidal effect on common cutworm (Test Example 2), judged grade / Insecticidal effect (Test Example 2), judged from mortality: cabbage leaf dip; for Insecticidal effect on common cutworm (Test Example 2), judged grade: second-instar larvae; for Insecticidal effect on common cutworm (Test Example 2), judged grade / Insecticidal effect, Test Example 2: eight days after inoculation; for Insecticidal effect, Test Example 2: cabbage leaf immersed; for Insecticidal effect (Test Example 2), judged from mortality: 8 days after inoculation
In short: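 Mortality was scored 8 days post-inoculation, using three groups of 10 second-instar larvae kept at 25 °C in closed 9 cm dishes on air-dried treated material. The insecticidal effect was graded from calculated mortality by a set criterion.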

[4] = rice leafroller third-instar larvae
[5] = mortality judged by criterion of Test Example 1
[6] = common cutworm second-instar larvae
[7] = third-instar larvae of rice leafroller
[8] = judged by the mortality criterion of Test Example 1
[9] = second-instar larvae of common cutworm

SMILES | Insecticidal effect, Test Example 3 [1, 4] | Insecticidal effect, Test Example 1 [2, 5] | Insecticidal effect, Test Example 2 [3, 6] | Insecticidal effect, Test Example 3 [1, 7] | Insecticidal effect, Test Example 1 [2, 8] | Insecticidal effect, Test Example 2 [3, 9] | further results
Cc1cc(OC(F)(F)F)ccc1NC(=O)c1ccccc1C(=O)NC(C)(C)C [compound 930] | – | – | – | – | – | – | Insecticidal effect on rice leafroller (Test Example 3), judged grade [1]: A (100); Insecticidal effect on diamondback moth (Test Example 1), judged grade [2]: A (100); Insecticidal effect on common cutworm (Test Example 2), judged grade [3]: A (100)
Cc1cc(C(F)(F)C(F)(F)F)ccc1NC(=O)c1cccc(OC(F)(F)F)c1C(=O)NC(C)C [compound 1191] | A (100) | A (100) | A (100) | – | – | – | –
Cc1c(NC(=O)c2ccccc2C(=O)NC(C)C)cccc1OC(F)(F)C(F)Cl (stereo not drawn) [compound 61] | – | – | – | A (100) | A (100) | B (99-90) | –
Cc1cc(C(F)(C(F)(F)F)C(F)(F)F)cc(C)c1NC(=O)c1cccc(I)c1C(=O)NC(C)C [compound 1716] | – | – | – | – | – | – | Insecticidal effect (Test Example 3), judged from mortality [1, 7]: A (100); Insecticidal effect (Test Example 1), judged from mortality [2]: A (100); Insecticidal effect (Test Example 2), judged from mortality [3, 9]: A (100)
CC(C)NC(=O)c1c(F)cccc1C(=O)Nc1ccc(C(F)(F)C(F)(F)C(F)(F)F)cc1 [compound 473] | – | – | – | – | – | – | Insecticidal effect on rice leafroller (Test Example 3), judged grade [1]: A (100); Insecticidal effect on diamondback moth (Test Example 1), judged grade [2]: A (100); Insecticidal effect on common cutworm (Test Example 2), judged grade [3]: A (100)
CC(C)NC(=O)c1c(F)cccc1C(=O)Nc1cccc(Cl)c1Cl [compound 488] | – | – | – | – | – | – | Insecticidal effect on rice leafroller (Test Example 3), judged grade [1]: A (100); Insecticidal effect on diamondback moth (Test Example 1), judged grade [2]: A (100); Insecticidal effect on common cutworm (Test Example 2), judged grade [3]: A (100)
CC(C)NC(=O)c1cccc(Cl)c1C(=O)Nc1ccc(OC(F)(F)C(F)OC(F)(F)C(F)(F)C(F)(F)F)cc1 (stereo not drawn) [compound 201] | – | – | – | A (100) | A (100) | B (99-90) | –
Cc1cc(C(F)(F)C(F)(F)F)ccc1NC(=O)c1cccc(I)c1C(=O)N1CCOCC1 [compound 1070] | A (100) | A (100) | A (100) | – | – | – | –
CC(C)NC(=O)c1c(C(=O)Nc2ccc3c(c2)OC(F)(F)C(F)(F)O3)cccc1[N+](=O)[O-] [compound 976] | A (100) | A (100) | A (100) | – | – | – | –
CCN(CC)C(=O)c1c(I)cccc1C(=O)Nc1ccc(Cl)cc1C [compound 1557] | – | – | – | – | – | – | Insecticidal effect (Test Example 3), judged from mortality [1, 7]: A (100); Insecticidal effect (Test Example 1), judged from mortality [2]: A (100); Insecticidal effect (Test Example 2), judged from mortality [3, 9]: A (100)
Cc1cc(C(F)(F)C(F)(F)F)ccc1NC(=O)c1ccc(Cl)cc1C(=O)NC(C)C [compound 1277] | A (100) | A (100) | A (100) | – | – | – | –
Cc1cc(C(F)(F)C(F)(F)F)ccc1NC(=O)c1cccc(Cl)c1C(=O)NC(C)CF (stereo not drawn) [compound 1651] | – | – | – | – | – | – | Insecticidal effect (Test Example 3), judged from mortality [1, 7]: A (100); Insecticidal effect (Test Example 1), judged from mortality [2]: A (100); Insecticidal effect (Test Example 2), judged from mortality [3, 9]: A (100)
CCN(CC)C(=O)c1c(I)cccc1C(=O)Nc1ccc(C(F)(F)F)cc1C [compound 1144] | A (100) | A (100) | A (100) | – | – | – | –
CCN(CC)C(=O)c1c(I)cccc1C(=O)Nc1ccc(OC(F)(F)F)cc1 [compound 1534] | – | – | – | – | – | – | Insecticidal effect (Test Example 3), judged from mortality [1, 7]: A (100); Insecticidal effect (Test Example 1), judged from mortality [2]: A (100); Insecticidal effect (Test Example 2), judged from mortality [3, 9]: A (100)
CC(C)NC(=O)c1c(Br)cccc1C(=O)Nc1ccc(OC(F)(F)F)cc1Br [compound 287] | – | – | – | A (100) | A (100) | A (100) | –
CCN(CC)C(=O)c1c(I)cccc1C(=O)Nc1ccc(OC(F)(F)F)cc1F [compound 1190] | A (100) | A (100) | A (100) | – | – | – | –
Cc1cc(C(F)(C(F)(F)F)C(F)(F)F)ccc1NC(=O)c1cccc(Cl)c1C(=O)NC(C)(C)C [compound 1038] | A (100) | A (100) | A (100) | – | – | – | –
Cc1cc(OC(F)(F)F)ccc1NC(=O)c1cccc([N+](=O)[O-])c1C(=O)NC(C)C [compound 710] | – | – | – | – | – | – | Insecticidal effect on rice leafroller (Test Example 3), judged grade [1]: A (100); Insecticidal effect on diamondback moth (Test Example 1), judged grade [2]: A (100); Insecticidal effect on common cutworm (Test Example 2), judged grade [3]: C (89-80)

SMILES | Insecticidal effect, Test Example 3 [1, 4] | Insecticidal effect, Test Example 1 [2, 5] | Insecticidal effect, Test Example 2 [3, 6] | Insecticidal effect, Test Example 3 [1, 7] | Insecticidal effect, Test Example 1 [2, 8] | Insecticidal effect, Test Example 2 [3, 9] | further results
Cc1cc(OC(F)(F)F)ccc1NC(=O)c1cccc(Br)c1C(=O)NC(C)C [compound 289] | – | – | – | A (100) | A (100) | A (100) | –
Cc1cc(C(F)(F)C(F)(F)C(F)(F)C(F)(F)F)ccc1NC(=O)c1cccc(F)c1C(=O)NC(C)C [compound 498] | – | – | – | – | – | – | Insecticidal effect on rice leafroller (Test Example 3), judged grade [1]: A (100); Insecticidal effect on diamondback moth (Test Example 1), judged grade [2]: A (100); Insecticidal effect on common cutworm (Test Example 2), judged grade [3]: A (100)
Cc1cc(OC(F)(F)C(F)Cl)ccc1NC(=O)c1c(Cl)cccc1C(=O)NC(C)C (stereo not drawn) [compound 241] | – | – | – | A (100) | A (100) | B (99-90) | –
CCC(CO)NC(=O)c1c(Cl)cccc1C(=O)Nc1ccc(C(F)(F)C(F)(F)F)cc1C (stereo not drawn) [compound 1316] | A (100) | A (100) | A (100) | – | – | – | –
Cc1cc(Oc2ncc(C(F)(F)F)cc2Cl)ccc1NC(=O)c1cccc(F)c1C(=O)NC(C)C [compound 524] | – | – | – | – | – | – | Insecticidal effect on rice leafroller (Test Example 3), judged grade [1]: A (100); Insecticidal effect on diamondback moth (Test Example 1), judged grade [2]: A (100); Insecticidal effect on common cutworm (Test Example 2), judged grade [3]: A (100)
Cc1cc(C(F)(F)C(F)(F)C(F)(F)C(F)(F)F)ccc1NC(=O)c1c(Cl)cccc1C(=O)NC(C)C [compound 225] | – | – | – | A (100) | A (100) | B (99-90) | –
Cc1cc(C(F)(C(F)(F)F)C(F)(F)F)ccc1NC(=O)c1ccc(F)c(Cl)c1C(=O)NC(C)(C)C [compound 1263] | A (100) | A (100) | A (100) | – | – | – | –
CC(C)NC(=O)c1c(Cl)cccc1C(=O)Nc1ccc(F)cc1Cl [compound 114] | – | – | – | A (100) | A (100) | A (100) | –
Cc1cc(C(F)(C(F)(F)F)C(F)(F)F)ccc1NC(=O)c1cc(I)ccc1C(=O)NC(C)C [compound 1251] | A (100) | A (100) | A (100) | – | – | – | –
COc1ccc(NC(=O)c2c(Cl)cccc2C(=O)NC(C)C)c(C)c1C [compound 219] | – | – | – | A (100) | A (100) | D (79-50) | –
CC(C)(C)NC(=O)c1c(F)cccc1C(=O)Nc1ccc(C(F)(F)C(F)(F)F)cc1Cl [compound 1508] | – | – | – | – | – | – | Insecticidal effect (Test Example 3), judged from mortality [1, 7]: A (100); Insecticidal effect (Test Example 1), judged from mortality [2]: A (100); Insecticidal effect (Test Example 2), judged from mortality [3, 9]: C (89-80)
Cc1cc(C(F)(F)C(F)(F)F)ccc1NC(=O)c1cccc(Cl)c1C(=O)NC(C)(C)/C=C/c1ccccc1 [compound 1604] | – | – | – | – | – | – | Insecticidal effect (Test Example 3), judged from mortality [1, 7]: A (100); Insecticidal effect (Test Example 1), judged from mortality [2]: A (100); Insecticidal effect (Test Example 2), judged from mortality [3, 9]: A (100)
Cc1cc(OC(F)(F)C(F)F)c(Cl)cc1NC(=O)c1cccc(I)c1C(=O)NC(C)C [compound 391] | – | – | – | A (100) | A (100) | A (100) | –
CC(C)NC(=O)c1c(I)cccc1C(=O)Nc1ccc2c(c1Cl)OC(F)C(F)(F)O2 (stereo not drawn) [compound 1733] | – | – | – | – | – | – | Insecticidal effect (Test Example 3), judged from mortality [1, 7]: A (100); Insecticidal effect (Test Example 1), judged from mortality [2]: A (100); Insecticidal effect (Test Example 2), judged from mortality [3, 9]: A (100)
CC(C)NC(=O)c1c(C(=O)Nc2cccc(C(F)(F)F)c2)cccc1[N+](=O)[O-] [compound 607] | – | – | – | – | – | – | Insecticidal effect on rice leafroller (Test Example 3), judged grade [1]: A (100); Insecticidal effect on diamondback moth (Test Example 1), judged grade [2]: A (100); Insecticidal effect on common cutworm (Test Example 2), judged grade [3]: A (100)
CC(C)NC(=O)c1c(C(=O)Nc2ccc(C(O)(C(F)(F)F)C(F)(F)F)cc2)cccc1[N+](=O)[O-] [compound 979] | A (100) | A (100) | A (100) | – | – | – | –
CC(C)NC(=O)c1cccc(Cl)c1C(=O)Nc1ccc(OC(F)F)cc1C(F)(F)F [compound 253] | – | – | – | C (89-80) | A (100) | A (100) | –
Cc1c(Cl)cccc1NC(=O)c1ccc(Cl)cc1C(=O)NC(C)C [compound 176] | – | – | – | A (100) | A (100) | D (79-50) | –
